Calls of active or inactive are those of the source. The calls are words filed in the database; no cut-off is given here.
Experiments:
Bile acid receptor [1] = target: T1, Bile acid receptor (Homo sapiens, UniProt Q96RI1); assay: Partial agonist activity at FXR-LBD-GST (unknown origin) by TR-FRET assay; conditions: read-out: EC50
T1 sequence (Q96RI1 whole entry): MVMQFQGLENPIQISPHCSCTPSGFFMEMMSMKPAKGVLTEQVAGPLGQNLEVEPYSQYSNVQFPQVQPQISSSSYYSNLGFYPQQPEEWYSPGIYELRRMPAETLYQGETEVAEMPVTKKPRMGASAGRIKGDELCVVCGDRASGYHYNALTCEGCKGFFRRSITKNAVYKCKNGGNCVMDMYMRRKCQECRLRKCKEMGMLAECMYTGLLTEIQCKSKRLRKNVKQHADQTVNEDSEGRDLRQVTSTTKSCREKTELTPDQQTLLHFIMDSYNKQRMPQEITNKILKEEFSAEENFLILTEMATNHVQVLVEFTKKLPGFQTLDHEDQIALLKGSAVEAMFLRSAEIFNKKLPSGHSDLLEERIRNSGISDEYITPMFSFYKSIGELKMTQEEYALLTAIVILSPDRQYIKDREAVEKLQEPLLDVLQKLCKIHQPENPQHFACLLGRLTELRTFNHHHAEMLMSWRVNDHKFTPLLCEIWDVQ

Bile acid receptor [2] = target: T1, Bile acid receptor; assay: Partial agonist activity at human FXR expressed in Huh-7 cells in presence of CDCA by luciferase reporter gene assay; type: cell-based
[3] = target: T2, Bile acid receptor (Homo sapiens) (UniProt Q96RI1); assay: Partial agonist activity at human FXR expressed in Huh-7 cells in presence of CDCA by luciferase reporter gene assay relative to GW4064; type: cell-based
T2 sequence (whole entry): T1 sequence (Q96RI1 whole entry)

Bile acid receptor [4] = target: T1, Bile acid receptor; assay: Antagonist activity at FXR-LBD-GST (unknown origin) in presence of GW4064
[5] = target: T2, Bile acid receptor (Homo sapiens); assay: Partial agonist activity at FXR in human Huh-7 cells assessed as reduction in CDCA-induced BSEP gene expression at 10 uM by RT-PCR analysis; type: cell-based; conditions: filed as partial agonist
[6] = target: T2, Bile acid receptor (Homo sapiens); assay: Partial agonist activity at FXR in human Huh-7 cells assessed as reduction in CDCA-induced FAS gene expression at 10 uM by RT-PCR analysis; type: cell-based; conditions: filed as partial agonist
[7] = target: T2, Bile acid receptor (Homo sapiens); assay: Partial agonist activity at FXR in human Huh-7 cells assessed as reduction in CDCA-induced SREBP gene expression at 10 uM by RT-PCR analysis; type: cell-based; conditions: filed as partial agonist
[8] = target: T3, Vitamin D3 receptor (Homo sapiens) (UniProt P11473); assay: Activation of VDR (unknown origin) at 10 uM
T3 sequence (whole entry): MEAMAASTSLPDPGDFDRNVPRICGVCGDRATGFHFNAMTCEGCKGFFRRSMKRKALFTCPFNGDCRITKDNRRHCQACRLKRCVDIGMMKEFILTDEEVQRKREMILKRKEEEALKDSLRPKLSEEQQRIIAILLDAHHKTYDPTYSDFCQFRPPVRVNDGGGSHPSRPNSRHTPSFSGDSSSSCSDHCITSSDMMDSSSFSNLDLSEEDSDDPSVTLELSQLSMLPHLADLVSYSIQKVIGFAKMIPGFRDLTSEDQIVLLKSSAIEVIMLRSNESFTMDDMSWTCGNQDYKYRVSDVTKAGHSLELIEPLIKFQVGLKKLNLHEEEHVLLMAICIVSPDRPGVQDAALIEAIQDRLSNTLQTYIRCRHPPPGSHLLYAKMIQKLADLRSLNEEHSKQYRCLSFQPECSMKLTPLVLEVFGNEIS

[9] = target: T4, Retinoic acid receptor RXR-alpha (Homo sapiens) (UniProt P19793); assay: Activation of RXRalpha (unknown origin) at 10 uM
T4 sequence (whole entry): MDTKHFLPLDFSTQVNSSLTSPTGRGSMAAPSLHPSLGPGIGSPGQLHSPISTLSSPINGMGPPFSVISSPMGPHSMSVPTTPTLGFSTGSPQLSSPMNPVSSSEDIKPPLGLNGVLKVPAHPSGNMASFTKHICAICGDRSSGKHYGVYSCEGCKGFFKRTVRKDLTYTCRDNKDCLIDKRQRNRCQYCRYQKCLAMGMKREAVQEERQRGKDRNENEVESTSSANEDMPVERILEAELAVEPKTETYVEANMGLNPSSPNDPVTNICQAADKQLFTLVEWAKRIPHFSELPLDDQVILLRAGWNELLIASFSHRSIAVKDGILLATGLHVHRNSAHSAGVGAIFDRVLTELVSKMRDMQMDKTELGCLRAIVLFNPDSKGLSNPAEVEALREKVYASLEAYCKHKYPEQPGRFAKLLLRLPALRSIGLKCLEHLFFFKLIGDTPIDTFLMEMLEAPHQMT

[10] = target: T5, Peroxisome proliferator-activated receptor gamma (Mus musculus) (UniProt P37238); assay: Inhibition of TNFalpha stimulated PPARgamma phosphorylation at Ser273 residue in mouse 3T3-L1 cells preincubated for 60 mins followed by TNFalpha addition for 90 mins by Western blot analysis; type: cell-based; conditions: time 150.0 min
T5 sequence (whole entry): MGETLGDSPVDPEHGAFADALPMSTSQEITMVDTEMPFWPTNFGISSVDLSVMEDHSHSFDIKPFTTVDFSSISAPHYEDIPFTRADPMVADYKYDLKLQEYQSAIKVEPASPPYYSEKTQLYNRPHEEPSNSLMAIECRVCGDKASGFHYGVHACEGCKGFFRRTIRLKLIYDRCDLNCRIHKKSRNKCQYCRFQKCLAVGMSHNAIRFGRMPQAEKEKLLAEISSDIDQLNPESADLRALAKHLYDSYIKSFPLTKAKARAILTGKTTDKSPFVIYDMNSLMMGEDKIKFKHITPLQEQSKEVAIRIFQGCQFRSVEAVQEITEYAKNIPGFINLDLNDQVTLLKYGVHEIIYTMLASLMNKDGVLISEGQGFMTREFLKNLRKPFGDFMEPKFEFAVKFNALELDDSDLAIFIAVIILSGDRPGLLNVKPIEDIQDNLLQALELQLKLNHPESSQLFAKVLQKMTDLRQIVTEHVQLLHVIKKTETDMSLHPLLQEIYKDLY

[11] = Metabolic stability in mouse liver microsomes assessed as parent compound remaining after 30 mins; type: ADME, Microsome; conditions: read-out: Stability
[12] = Metabolic stability in mouse liver microsomes assessed as half life; type: ADME, Microsome

`CC(C)(C)c1ccc(-n2cnc3c(NC(=O)Cc4ccc(C(=O)O)cc4)cccc32)cc1` gave an EC50 (Bile acid receptor [1]) of 250 nM, an EC50 (Bile acid receptor [2]) of 1900 nM and an Activity [3] of 35.6%. For the same compound, the IC50 (Bile acid receptor [4]) was 20700 nM, the Activity [5] was “Active” and the Activity [6] was “Active”. The Activity [7] was “Active”, the Activity [8] was “inactive” and the Activity [9] was “inactive”. For the same compound, the inhibition [10] was “Dose-Dependent Effect”, the remaining at 0.5 h [11] was 69.5% and the half-life [12] was 57 min.
